Assays:
[1] = biological target: Mitogen-activated protein kinase 7 (Homo sapiens) (UniProt Q13164); details: Compound concentration 1000.0 nM
[2] = biological target: RAC-alpha serine/threonine-protein kinase (Homo sapiens) (UniProt P31749); details: Compound concentration 1000.0 nM
[3] = biological target: Tyrosine-protein kinase HCK (Homo sapiens) (UniProt P08631); details: Compound concentration 1000.0 nM
[4] = biological target: Fibroblast growth factor receptor 1 (Homo sapiens) (UniProt P11362); details: Compound concentration 1000.0 nM
[5] = biological target: Serine/threonine-protein kinase WNK2 (Homo sapiens) (UniProt Q9Y3S1); details: Compound concentration 1000.0 nM
[6] = tested on: Phosphatidylinositol 4,5-bisphosphate 3-kinase catalytic subunit alpha isoform (Homo sapiens), P42336 [I800L]; details: Compound concentration 1000.0 nM
[7] = biological target: Serine/threonine-protein kinase Sgk2 (Homo sapiens) (UniProt Q9HBY8); details: Compound concentration 1000.0 nM
[8] = biological target: Dual specificity testis-specific protein kinase 1 (Homo sapiens) (UniProt Q15569); details: Compound concentration 1000.0 nM
[9] = biological target: Membrane-associated tyrosine- and threonine-specific cdc2-inhibitory kinase (Homo sapiens) (UniProt Q99640); details: Compound concentration 1000.0 nM
[10] = biological target: Ankyrin repeat and protein kinase domain-containing protein 1 (Homo sapiens) (UniProt Q8NFD2); details: Compound concentration 1000.0 nM
[11] = biological target: Glycogen synthase kinase-3 alpha (Homo sapiens) (UniProt P49840); details: Compound concentration 1000.0 nM
[12] = biological target: Mitogen-activated protein kinase 11 (Homo sapiens) (UniProt Q15759); details: Compound concentration 1000.0 nM
[13] = biological target: 5-hydroxytryptamine receptor 7 (Homo sapiens) (UniProt P34969); details: Compound concentration 10.0 uM
[14] = biological target: Tyrosine-protein kinase JAK3 (Homo sapiens) (UniProt P52333); details: Compound concentration 1000.0 nM
[15] = biological target: Serine/threonine-protein kinase pim-2 (Homo sapiens) (UniProt Q9P1W9); details: Compound concentration 1000.0 nM
Sequence of Serine/threonine-protein kinase pim-2 (Homo sapiens) (Q9P1W9 whole entry, looked up): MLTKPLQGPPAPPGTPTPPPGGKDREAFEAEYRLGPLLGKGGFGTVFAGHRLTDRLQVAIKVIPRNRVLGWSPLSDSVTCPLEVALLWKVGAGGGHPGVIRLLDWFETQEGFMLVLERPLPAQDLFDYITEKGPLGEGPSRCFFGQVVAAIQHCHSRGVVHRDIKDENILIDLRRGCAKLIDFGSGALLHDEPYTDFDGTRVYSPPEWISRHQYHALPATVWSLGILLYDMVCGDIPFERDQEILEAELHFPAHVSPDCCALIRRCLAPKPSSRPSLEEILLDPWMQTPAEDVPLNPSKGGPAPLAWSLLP

[16] = biological target: Serine/threonine-protein kinase TBK1 (Homo sapiens) (UniProt Q9UHD2); details: Compound concentration 1000.0 nM
[17] = biological target: Cyclin-dependent kinase 19 (Homo sapiens) (UniProt Q9BWU1); details: Compound concentration 1000.0 nM
[18] = tested on: Mast/stem cell growth factor receptor Kit (Homo sapiens), P10721 [V559D]; details: Compound concentration 1000.0 nM
[19] = biological target: Casein kinase I isoform delta (Homo sapiens) (UniProt P48730); details: Compound concentration 1000.0 nM
[20] = tested on: Tyrosine-protein kinase ABL1 (Homo sapiens), P00519 [T315I]; details: Compound concentration 1000.0 nM
[21] = biological target: Serine/threonine-protein kinase TAO2 (Homo sapiens) (UniProt Q9UL54); details: Compound concentration 1000.0 nM
[22] = biological target: Wee1-like protein kinase (Homo sapiens) (UniProt P30291); details: Compound concentration 1000.0 nM
[23] = tested on: Proto-oncogene tyrosine-protein kinase receptor Ret (Homo sapiens), P07949 [M918T]; details: Compound concentration 1000.0 nM
[24] = biological target: Cyclin-dependent kinase 9 (Homo sapiens) (UniProt P50750); details: Compound concentration 1000.0 nM
[25] = biological target: Serine/threonine-protein kinase TNNI3K (Homo sapiens) (UniProt Q59H18); details: Compound concentration 1000.0 nM
[26] = biological target: Calcium/calmodulin-dependent protein kinase kinase 2 (Homo sapiens) (UniProt Q96RR4); details: Compound concentration 1000.0 nM
[27] = biological target: Aurora kinase C (Homo sapiens) (UniProt Q9UQB9); details: Compound concentration 1000.0 nM
Sequence of Aurora kinase C (Homo sapiens) (Q9UQB9 whole entry): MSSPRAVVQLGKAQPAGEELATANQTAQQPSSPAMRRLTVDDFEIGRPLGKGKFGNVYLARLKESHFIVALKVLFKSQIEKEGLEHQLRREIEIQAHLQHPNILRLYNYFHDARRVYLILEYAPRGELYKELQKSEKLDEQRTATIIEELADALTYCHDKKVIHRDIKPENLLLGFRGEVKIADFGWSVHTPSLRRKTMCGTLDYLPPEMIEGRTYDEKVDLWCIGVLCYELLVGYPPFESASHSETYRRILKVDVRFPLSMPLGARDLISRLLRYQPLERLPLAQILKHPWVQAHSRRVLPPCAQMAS

[28] = tested on: Mast/stem cell growth factor receptor Kit (Homo sapiens), P10721 [D816V]; details: Compound concentration 1000.0 nM
[29] = biological target: cGMP-inhibited 3',5'-cyclic phosphodiesterase 3A (Homo sapiens) (UniProt Q14432); test: PDE-III/HU Eurofins-Panlabs selectivity data (BI); details: Compound concentration 10.0 uM
[30] = biological target: 1-phosphatidylinositol 3-phosphate 5-kinase (Homo sapiens) (UniProt Q9Y2I7); details: Compound concentration 1000.0 nM
Sequence of 1-phosphatidylinositol 3-phosphate 5-kinase (Homo sapiens) (Q9Y2I7 whole entry): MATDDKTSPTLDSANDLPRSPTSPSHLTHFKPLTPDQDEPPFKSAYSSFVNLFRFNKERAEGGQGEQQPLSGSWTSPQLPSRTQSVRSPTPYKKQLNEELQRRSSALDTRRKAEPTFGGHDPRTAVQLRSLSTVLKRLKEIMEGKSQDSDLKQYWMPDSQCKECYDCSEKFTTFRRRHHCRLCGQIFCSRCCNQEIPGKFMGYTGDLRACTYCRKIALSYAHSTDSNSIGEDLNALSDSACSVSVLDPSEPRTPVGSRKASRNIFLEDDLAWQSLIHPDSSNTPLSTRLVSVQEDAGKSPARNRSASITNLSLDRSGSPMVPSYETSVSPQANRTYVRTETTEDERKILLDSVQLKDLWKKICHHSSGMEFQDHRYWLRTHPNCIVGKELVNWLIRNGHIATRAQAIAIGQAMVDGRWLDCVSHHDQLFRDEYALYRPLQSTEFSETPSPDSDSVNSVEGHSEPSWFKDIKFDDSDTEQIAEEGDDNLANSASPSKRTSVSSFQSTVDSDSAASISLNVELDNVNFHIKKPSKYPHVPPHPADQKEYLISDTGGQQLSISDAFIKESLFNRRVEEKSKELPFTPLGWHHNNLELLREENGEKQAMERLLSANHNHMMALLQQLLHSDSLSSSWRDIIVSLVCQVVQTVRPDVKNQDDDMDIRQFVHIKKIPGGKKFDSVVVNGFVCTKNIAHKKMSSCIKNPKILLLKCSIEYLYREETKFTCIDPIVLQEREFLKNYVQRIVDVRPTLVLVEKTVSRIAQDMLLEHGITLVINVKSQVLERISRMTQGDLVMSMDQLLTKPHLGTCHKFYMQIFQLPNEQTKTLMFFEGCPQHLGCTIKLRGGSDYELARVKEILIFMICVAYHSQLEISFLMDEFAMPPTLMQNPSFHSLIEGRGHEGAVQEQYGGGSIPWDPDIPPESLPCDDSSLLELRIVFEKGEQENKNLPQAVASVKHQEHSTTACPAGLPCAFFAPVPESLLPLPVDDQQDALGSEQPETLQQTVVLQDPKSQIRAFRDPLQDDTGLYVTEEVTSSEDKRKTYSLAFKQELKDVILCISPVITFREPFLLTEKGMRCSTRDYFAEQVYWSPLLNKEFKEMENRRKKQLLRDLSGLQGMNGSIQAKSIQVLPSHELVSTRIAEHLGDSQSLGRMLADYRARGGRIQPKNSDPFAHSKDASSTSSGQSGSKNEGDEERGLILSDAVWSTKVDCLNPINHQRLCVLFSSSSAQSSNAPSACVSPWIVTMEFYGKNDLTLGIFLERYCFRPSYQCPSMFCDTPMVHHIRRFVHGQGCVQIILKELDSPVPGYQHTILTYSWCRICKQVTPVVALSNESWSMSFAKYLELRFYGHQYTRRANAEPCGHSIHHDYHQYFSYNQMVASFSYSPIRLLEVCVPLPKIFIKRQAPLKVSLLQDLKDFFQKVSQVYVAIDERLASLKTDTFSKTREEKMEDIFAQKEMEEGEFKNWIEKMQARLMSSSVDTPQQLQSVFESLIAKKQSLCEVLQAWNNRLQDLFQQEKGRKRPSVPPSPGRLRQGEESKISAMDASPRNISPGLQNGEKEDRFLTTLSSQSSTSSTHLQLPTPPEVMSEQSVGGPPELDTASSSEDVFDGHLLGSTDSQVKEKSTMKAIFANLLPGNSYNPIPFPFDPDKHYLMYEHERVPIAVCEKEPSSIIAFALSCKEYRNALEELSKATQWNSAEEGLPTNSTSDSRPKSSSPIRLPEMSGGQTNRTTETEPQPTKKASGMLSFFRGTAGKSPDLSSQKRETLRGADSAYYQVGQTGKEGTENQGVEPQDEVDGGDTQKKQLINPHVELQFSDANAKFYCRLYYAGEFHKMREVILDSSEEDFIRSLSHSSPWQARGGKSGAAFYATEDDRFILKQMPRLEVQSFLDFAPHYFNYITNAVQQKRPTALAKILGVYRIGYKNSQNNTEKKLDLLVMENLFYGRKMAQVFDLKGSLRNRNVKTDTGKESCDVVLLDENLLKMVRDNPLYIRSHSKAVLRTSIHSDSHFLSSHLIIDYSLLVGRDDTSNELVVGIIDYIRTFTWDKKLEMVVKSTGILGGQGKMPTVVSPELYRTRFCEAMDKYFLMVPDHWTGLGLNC

[31] = biological target: Phosphatidylinositol 5-phosphate 4-kinase type-2 gamma (Homo sapiens) (UniProt Q8TBX8); details: Compound concentration 1000.0 nM
[32] = biological target: Mitogen-activated protein kinase kinase kinase kinase 4 (Homo sapiens) (UniProt O95819); details: Compound concentration 1000.0 nM
[33] = biological target: Dual specificity mitogen-activated protein kinase kinase 2 (Homo sapiens) (UniProt P36507); details: Compound concentration 1000.0 nM
Sequence of Dual specificity mitogen-activated protein kinase kinase 2 (Homo sapiens) (P36507 whole entry): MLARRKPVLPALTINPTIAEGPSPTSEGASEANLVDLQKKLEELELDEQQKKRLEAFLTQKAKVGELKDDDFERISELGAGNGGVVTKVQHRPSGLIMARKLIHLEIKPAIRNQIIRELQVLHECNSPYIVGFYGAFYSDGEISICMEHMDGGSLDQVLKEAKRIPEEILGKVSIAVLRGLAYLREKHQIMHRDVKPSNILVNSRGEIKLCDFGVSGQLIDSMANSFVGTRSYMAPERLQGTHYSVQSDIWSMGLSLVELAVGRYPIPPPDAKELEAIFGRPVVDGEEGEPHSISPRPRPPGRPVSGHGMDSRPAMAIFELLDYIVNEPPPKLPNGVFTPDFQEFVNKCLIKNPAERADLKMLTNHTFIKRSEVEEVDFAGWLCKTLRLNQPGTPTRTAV

[34] = biological target: Protein kinase C epsilon type (Homo sapiens) (UniProt Q02156); details: Compound concentration 1000.0 nM
[35] = biological target: Serine/threonine-protein kinase DCLK1 (Homo sapiens) (UniProt O15075); details: Compound concentration 1000.0 nM
[36] = tested on: Tyrosine-protein kinase ABL1 (Homo sapiens), P00519 [E255K]; details: Compound concentration 1000.0 nM
[37] = biological target: Type-1 angiotensin II receptor (Oryctolagus cuniculus) (UniProt P34976); test: AT1 Eurofins-Panlabs selectivity data (BI); details: Homo sapiens; Compound concentration 10.0 uM
[38] = biological target: Ephrin type-A receptor 6 (Homo sapiens) (UniProt Q9UF33); details: Compound concentration 1000.0 nM
[39] = biological target: Serine/threonine-protein kinase SIK1 (Homo sapiens) (UniProt P57059); details: Compound concentration 1000.0 nM
[40] = biological target: Serine/threonine-protein kinase OSR1 (Homo sapiens) (UniProt O95747); details: Compound concentration 1000.0 nM
[41] = biological target: Ribosomal protein S6 kinase alpha-2 (Homo sapiens) (UniProt Q15349); details: Compound concentration 1000.0 nM
[42] = tested on: Phosphatidylinositol 4,5-bisphosphate 3-kinase catalytic subunit alpha isoform (Homo sapiens), P42336 [H1047Y]; details: Compound concentration 1000.0 nM
Sequence of Phosphatidylinositol 4,5-bisphosphate 3-kinase catalytic subunit alpha isoform (Homo sapiens), P42336 [H1047Y] (P42336 whole entry H1047Y, canonical isoform): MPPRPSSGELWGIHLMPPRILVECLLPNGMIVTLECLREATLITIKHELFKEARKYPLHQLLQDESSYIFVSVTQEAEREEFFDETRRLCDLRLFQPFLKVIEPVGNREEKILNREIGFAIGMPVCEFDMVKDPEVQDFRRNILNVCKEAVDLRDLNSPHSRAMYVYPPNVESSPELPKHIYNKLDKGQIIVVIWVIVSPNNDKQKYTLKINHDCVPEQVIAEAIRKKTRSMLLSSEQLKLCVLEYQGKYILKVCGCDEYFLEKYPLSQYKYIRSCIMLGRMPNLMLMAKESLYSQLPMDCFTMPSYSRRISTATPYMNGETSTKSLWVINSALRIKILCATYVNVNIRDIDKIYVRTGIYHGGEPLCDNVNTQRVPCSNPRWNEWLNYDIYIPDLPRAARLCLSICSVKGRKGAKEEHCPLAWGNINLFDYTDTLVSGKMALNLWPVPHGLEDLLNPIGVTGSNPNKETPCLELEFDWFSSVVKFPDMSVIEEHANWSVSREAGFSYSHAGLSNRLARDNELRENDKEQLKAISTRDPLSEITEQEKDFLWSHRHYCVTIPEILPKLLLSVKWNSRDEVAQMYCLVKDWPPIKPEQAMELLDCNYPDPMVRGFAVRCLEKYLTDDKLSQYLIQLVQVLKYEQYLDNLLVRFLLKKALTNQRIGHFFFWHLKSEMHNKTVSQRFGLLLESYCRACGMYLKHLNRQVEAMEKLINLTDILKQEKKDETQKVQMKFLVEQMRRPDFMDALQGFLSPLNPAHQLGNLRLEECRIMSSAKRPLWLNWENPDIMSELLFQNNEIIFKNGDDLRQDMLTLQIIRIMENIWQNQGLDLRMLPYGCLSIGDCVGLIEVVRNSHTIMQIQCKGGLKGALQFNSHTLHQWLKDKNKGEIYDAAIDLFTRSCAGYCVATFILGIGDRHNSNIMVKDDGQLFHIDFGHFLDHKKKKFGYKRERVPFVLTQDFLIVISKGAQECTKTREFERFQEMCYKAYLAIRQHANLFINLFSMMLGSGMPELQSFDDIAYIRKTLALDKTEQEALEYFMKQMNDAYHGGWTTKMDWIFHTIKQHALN

[43] = biological target: Cyclin-dependent kinase 2 (Homo sapiens) (UniProt P24941); details: Compound concentration 1000.0 nM
[44] = biological target: Activin receptor type-1 (Homo sapiens) (UniProt Q04771); details: Compound concentration 1000.0 nM
[45] = biological target: Phosphorylase b kinase regulatory subunit alpha, liver isoform (Homo sapiens) (UniProt P46019); details: Compound concentration 1000.0 nM

Sequence of Mitogen-activated protein kinase 7 (Homo sapiens) (Q13164 2-816 limits assumed): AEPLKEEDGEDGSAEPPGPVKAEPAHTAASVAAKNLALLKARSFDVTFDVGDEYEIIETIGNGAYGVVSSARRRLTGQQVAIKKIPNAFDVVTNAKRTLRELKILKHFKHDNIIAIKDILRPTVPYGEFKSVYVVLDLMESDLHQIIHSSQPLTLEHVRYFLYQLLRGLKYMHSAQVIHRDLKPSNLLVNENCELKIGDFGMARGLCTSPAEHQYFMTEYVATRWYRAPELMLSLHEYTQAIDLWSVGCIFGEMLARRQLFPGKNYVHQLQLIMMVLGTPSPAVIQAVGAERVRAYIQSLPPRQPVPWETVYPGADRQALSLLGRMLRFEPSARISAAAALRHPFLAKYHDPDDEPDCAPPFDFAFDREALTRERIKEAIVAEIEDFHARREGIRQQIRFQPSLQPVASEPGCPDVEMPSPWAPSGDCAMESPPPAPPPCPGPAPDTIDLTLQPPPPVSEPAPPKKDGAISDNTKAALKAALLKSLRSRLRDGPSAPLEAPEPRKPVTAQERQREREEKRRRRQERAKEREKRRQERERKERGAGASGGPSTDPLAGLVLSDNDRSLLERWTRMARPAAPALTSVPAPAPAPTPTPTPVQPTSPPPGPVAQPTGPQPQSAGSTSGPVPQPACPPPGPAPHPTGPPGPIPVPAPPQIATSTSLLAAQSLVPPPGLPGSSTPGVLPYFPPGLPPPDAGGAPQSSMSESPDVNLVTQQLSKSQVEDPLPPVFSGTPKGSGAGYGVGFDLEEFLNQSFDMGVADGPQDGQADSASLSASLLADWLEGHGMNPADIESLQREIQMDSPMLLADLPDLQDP

CCOCCn1cc(C(=O)Nc2ccc(-n3nc(-c4cccnc4)cc3C(F)(F)F)cn2)ccc1=O [BI 1935]
inactive: residual activity [1] 86% | residual activity [2] 95% | residual activity [3] 93% | residual activity [4] 100% | residual activity [5] 64% | residual activity [6] 71% | residual activity [7] 100% | residual activity [8] 85% | residual activity [9] 100% | residual activity [10] 57% | residual activity [11] 100% | residual activity [12] 80% | inhibition [13] -4.21% | residual activity [14] 100% | residual activity [15] 100% | residual activity [16] 76% | residual activity [17] 95% | residual activity [18] 87% | residual activity [19] 100% | residual activity [20] 96% | residual activity [21] 75% | residual activity [22] 100% | residual activity [23] 91% | residual activity [24] 97% | residual activity [25] 100% | residual activity [26] 100% | residual activity [27] 88% | residual activity [28] 92% | residual activity [29] 85% | residual activity [30] 97% | residual activity [31] 100% | residual activity [32] 91% | residual activity [33] 94% | residual activity [34] 100% | residual activity [35] 83% | residual activity [36] 69% | residual activity [37] 93% | residual activity [38] 93% | residual activity [39] 100% | residual activity [40] 92% | residual activity [41] 89% | residual activity [42] 100% | residual activity [43] 100% | residual activity [44] 75% | residual activity [45] 100%
